SMILES strings stand for the structures. “Also recorded” adds a separate entry of the source.

In test [1] the test system is inflammatory cytokine IL-1β. As to the kind of experiment: LPS-induced IL-1β expression in BV2 microglial cells (semi-quantitative PCR). Particulars: compound 5 μg/ml 12 hours, then LPS 1 μg/ml 2 hours, FIG. 1. The test is classed as cell-based, mouse. The protocol:
Mouse microglial cells (BV2) were cultured using a DMEM medium containing 2% FBS (fetal bovine serum) for 12 hours under conditions with or without the addition of the compound of the present invention, KIT-008 (5 μg/ml). Thereafter, the cells were treated with LPS (1 μg/ml) for 2 hours, and intracellular RNAs were extracted with an RNA extraction kit (TRI Reagent, Molecular Research Center Inc.), and the expression of an inflammatory cytokine IL-1β and the RNA expression of the Gapdh gene as a control were detected by semi-quantitative PCR (TaKaRa PrimeScript 1st strand cDNA synthesis Kit, TAKARA BIOTECHNOLOGY Co., LTD.).

For test [2], the system named is amyloid beta (Aβ) in N2a cells. As to the kind of experiment: Amyloid beta (Aβ) accumulation in lysosomes of CFPAPPsw-expressing N2a cells. It counts as cell-based, mouse. The note with it: N2a cells expressing CFPAPPsw in LPS-treated BV2-derived medium, pretreatment with compound; antibody 6E10; FIG. 11. An excerpt:
A plasmid having cDNA encoding CFPAPPsw (CFPAPPsw that fuses a fluorescent protein CFP to the N-terminus of an amyloid precursor protein (APPsw) having a Swedish-type amino acid substitution that is easily cleaved by BACE) was expressed in N2a cells, and localization of amyloid beta (Aβ) in the N2a cells in an untreated mouse glial cell BV2 culture supernatant (−LPS), in the N2a cells in LPS-treated BV2 culture supernatant (LPS-treated BV2-derived medium), and in the N2a cells administered with KIT-008 was verified using an antibody 6E10 (BioLegend) that recognizes the Aβ portion.

In test [3] the test system is inducible nitric oxide synthase (iNOS). As to the kind of experiment: LPS-induced iNOS expression in mouse hippocampal tissue (immunohistochemistry). Particulars: c57BL6J mice hippocampal tissue, 10 mg/50 kg/day in drinking water 4 weeks, then LPS 10 days; FIG. 15, 16. It counts as in vivo. The protocol: Specifically, 8-week-old male c57BL6J mice were allowed to drink each of the compounds of the present invention (KIT-008 and KIT-020) at a dose of 10 mg/50 kg/day for 4 weeks, and were then subjected to LPS treatment (200 mg/kg/day) for 10 days while allowing them to drink the compound in the same manner. The mouse brain tissue was subjected to an immunohistochemistry (IHC) study using an anti-NeuN antibody (a neuron marker, Millipore MAB377) and an anti-iNOS antibody (an inflammatory marker, Invitrogen PA1-036). DAPI was used to stain a cell nucleus.
In FIG. 15, the scale bar is 50 μm and the arrows indicate iNOS-positive neurons. The data in FIG. 16 represents the average value for each group (3 mice, n=3). In the LPS group, the number of iNOS-positive neurons increased compared to that in the control group, but in the KIT-008 group and the KIT-020 group, the increase in iNOS-positive neurons caused by LPS was suppressed.

In test [4] the test system is lysosomes in mouse neurons Neuro2a (N2a). As to the kind of experiment: Impaired lysosomal acidification in Neuro2a neurons induced by culture supernatant of LPS-treated BV2. The test is classed as cell-based. The note with it: N2a cells, compound 24 hours, then 24 hours in supernatant of LPS-treated BV2 with compound; LysoTracker Red; FIG. 10. On the procedure: Lysosomes in mouse neurons Neuro2a (N2a) cultured in a normal DMEM medium were labeled with LysoPrime Green (Dojindo). LysoPrime Green is a fluorescent dye that is highly specific for lysosomes which are acidic organelles and that is resistant to pH changes.
Then, N2a is cultured in the culture supernatant of mouse glial cells BV2 treated with the endotoxin lipopolysaccharide (LPS) (1 μg/ml, 18 h) or the culture supernatant of untreated BV2, and labeled with LysoTracker™ Red DND-99 (Thermo Fisher Scientific) which targets acidic organelles.
That is, it was shown that acidification of the lysosomes in the neurons were impaired by glial cell-derived factors in the medium resulting from inflammation.
Each of the compounds of the present invention, KIT-008, KIT-019 and KIT-020 was added to the medium of N2a cells and cultured for 24 hours, and then cultured for another 24 hours in the culture supernatant of BV2 administered with LPS in the presence of each compound.

Test [5] deals with c57BL6J mice. As to the kind of experiment: Water maze test of mice with LPS-induced memory impairment. It counts as in vivo, mouse. Particulars: 10 mg/50 kg/day in drinking water 4 weeks, then LPS 7 days, Trial 6, P<0.05, FIG. 12. On the procedure:
Specifically, 8-week-old male c57BL6J mice (5 mice in each group, n=5) were allowed to drink each of the compounds of the present invention (KIT-008 and KIT-020) at a dose of 10 mg/50 kg/day for 4 weeks, and were then subjected to LPS treatment (200 mg/kg/day) for 7 days while allowing them to drink the compound in the same manner. Thereafter, they were subjected to a water maze test for 2 days (3 trials per day).
Escape Latency indicates the time required to arrive at an escape platform (arrival time). Comparisons between groups were performed by ANOVA test and Bonferroni's post hoc test. […] Therefore, the compounds of the present invention are effective in improving brain function (cognitive function).

The test system of test [6] is p65 (NFkB). The test can be described thus: LPS-induced p65 nuclear accumulation in BV2 microglial cells (Western blotting). The test is classed as cell-based, mouse. Particulars: compound 5 μg/ml 12 hours, then LPS 1 μg/ml 2 hours, FIG. 2. On the procedure:
Mouse microglial cells (BV2) were cultured using a DMEM medium containing 2% FBS (fetal bovine serum) for 12 hours under conditions with or without the addition of the compound of the present invention, KIT-008 or KIT-020 (5 μg/ml). Thereafter, it was treated with LPS (1 μg/ml) for 2 hours, proteins in the cell nucleus were extracted, and p65 (NFkB) protein expression was detected by Western blotting using NF-κB p65 (Cell Signaling Technology, the clone name: D14E12) as a primary antibody and Anti-Rabbit IgG HRP-linked antibody (Cell Signaling Technology) as a secondary antibody.

The test system of test [7] is amyloid beta (Aβ) deposition in hippocampal tissue. The test can be described thus: LPS-induced amyloid beta (Aβ) deposition in mouse hippocampal tissue (immunohistochemistry). The note with it: c57BL6J mice hippocampal tissue, 10 mg/50 kg/day in drinking water 4 weeks, then LPS 10 days; FIG. 13, 14. The test is classed as in vivo. On the procedure: Specifically, 8-week-old male c57BL6J mice were allowed to drink each of the compounds of the present invention (KIT-008 and KIT-020) at a dose of 10 mg/50 kg/day for 4 weeks, and were then subjected to LPS treatment (200 mg/kg/day) for 10 days while allowing them to drink the compound in the same manner. The mouse hippocampal tissue was subjected to an immunohistochemistry test using an anti-amyloid beta antibody (a cocktail of two antibodies, 6E10 (BioLegend) and 82E1 (Immuno-Biological Laboratories Co, Ltd)). DAPI was used to stain a cell nucleus. In FIG. 13, the scale bar is 100 μm and the arrows indicate amyloid beta that deposited. The data in FIG. 14 represent the average number of amyloid beta deposition in each group (3 mice, n=3). In the LPS group, amyloid beta deposition was observed compared to the control group, but in the KIT-008 group and the KIT-020 group, amyloid beta deposition caused by LPS was suppressed.

For `CC/C=C\C/C=C\C/C=C\C/C=C\C/C=C\C/C=C\CCC(=O)O[C@H](COC/C=C/CCCCCCCCCCCCCCC)COP(=O)(O)OCCN` [KIT-008, 2-((((R)-2-(((4Z,7Z,10Z,13Z,16Z,19Z)-docosa-4,7,10,13,16,19-hexenoyl)oxy)-3-(((E)-octadec-2-en-1-yl)oxy)propoxy)(hydroxy)phosphoryl)oxy)ethane-1-ammonium 2,2,2-trifluoroacetate], in test [1], the “LPS-induced inflammatory cytokine IL-1β expression” value is “reduced”. Besides, the “accumulation of Aβ in lysosomes” value in test [2] is recorded as “eliminated”. For the same molecule, the “increase in iNOS-positive neurons caused by LPS” value in test [3] was “suppressed”. Besides, in test [4], the “impaired acidification of lysosomes in neurons caused by glial cell-derived factors” value is given as “ameliorated; also recorded: highest effect”. Further, the “memory retention (Escape Latency) compared to the LPS group” value in test [5] is given as “improvement in memory retention”. For the same molecule, in test [6], the “LPS-induced p65 nuclear accumulation” value is given as “suppressed”. The “amyloid beta deposition caused by LPS” value in test [7] is on record as “suppressed”.

For the origin of these results see patent US20250011347A1, “NOVEL PLASMALOGEN DERIVATIVE” (Institute of Rheological Function of Food Co., Ltd., priority 2021, published 2025).
